Measurements taken from patent US9273318B2, “Induction of thyroid iodide-handling gene expression in human cancers” (THE JOHNS HOPKINS UNIVERSITY, priority 2008, dated 2016).
“Also recorded” adds a separate entry of the source. Like-named read-outs stand apart in the source and are kept apart here.

How the values were obtained:
NPA cells [1] = test: Radioactive iodide uptake assay, NPA cells; assay type: cell-based, human; settings: NPA cells treated with inhibitors, 1 μCi Na125I, 1 h
Procedure: (§1) FIG. 6A-6D. […] After a serum starvation for 24 h, total RNA was isolated for expression analysis for the indicated thyroid iodide-metabolizing genes. RT-PCR analysis was performed for the expression of NIS in NPA cells. FIG. 6B) Flow cytometric measurement of NIS protein expression. NPA cells were treated with specific inhibitors (upper panel) as described in FIG. 1 or stably transfected with specific siRNAs to knock down BRAF and Akt-1/2, individually or in combination as described in FIG. 3 (lower panel). NIS protein levels were measured by flow cytometry. […] After a 30-h combined treatment with both U0126 and Akti IV (as in FIG. 6B), cells were analyzed by immunofluorescent microscopy using anti-NIS and FITC-coupled secondary antibody and double immunofluorescence with the red color representing 7-AAD nuclear staining and the green color representing NIS expression and localization. […] Cells were then washed and harvested for radioactivity measurement using a gamma-counter as described in the Materials and Methods. Data are expressed as the mean±SD of values from three assays. **, P<0.01, compared with control or empty vector.
(§2) FIG. 14A-14C. […] NIS protein levels were measured by flow cytometry. […] Cells were then washed and harvested for radioactivity measurement using a gamma-counter as described in the Experimental Procedures. […]

[2] = system: phosphorylation of Akt (p-Akt); test: Western blotting of phosphorylated Akt in NPA cells; settings: Akti IV 0.5 μM, 30 h
Procedure: FIGS. 1A-1C Effects of suppression of the MAPK and PI3K/Akt pathways by specific inhibitors on NPA cells. FIG. 1A) Inhibition of ERK and Akt phosphorylation by suppression of MAPK and PI3K/Akt pathways using the MEK-specific inhibitor U0126 and the Akt-specific inhibitor Akti IV, respectively. NPA cells were treated with U0126 at 10 μM, or with Akti IV at 0.5 μM for 30 h. Cells were lysed for Western blotting assay. The activities of MAPK and PI3K/Akt pathways were reflected by the level of phosphorylated ERK and Akt detected with specific anti-phosphorylated ERK (p-ERK) and anti-phosphorylated Akt (p-Akt) antibodies. Immunoblotting with antibody against β-actin was used for quality control.
Effects of suppression of the PI3K/Akt and MAP kinase pathways by specific inhibitors on thyroid cancer cells. FIG. 7 A) Inhibition of Akt and ERK phosphorylation by suppression of PI3K/Akt and MAP kinase pathways using the Akt-specific inhibitor Akti IV and the MEK-specific inhibitor U0126, respectively. NPA and KAT10 cells were treated with Akti IV at 0.5 and 2 μM, respectively, or with U0126 at 10 μM for 30 h. Cells were lysed for Western blotting assay. The activities of PI3K/Akt and MAP kinase pathways were reflected by the level of phosphorylated Akt and ERK detected with specific anti-phosphorylated Akt (p-Akt) and anti-phosphorylated ERK (p-ERK) antibodies. […]

NIS protein [3] = test: Flow cytometry and immunofluorescence of NIS protein expression, NPA cells; assay type: cell-based, human; settings: U0126 10 μM, Akti IV 0.5 μM, 30 h, control 3.4%
Procedure: as §1, §2

[4] = system: thyroid iodide-handling genes (NIS, TSHR, Tg, TPO, FOXE1, TTF1); test: RT-PCR / quantitative RT-PCR of thyroid iodide-handling genes, NPA cells; assay type: cell-based, human; settings: U0126 10 μM, Akti IV 0.5 μM, 30 h
[5] = system: phosphorylation of Akt (p-Akt); test: Western blotting of phosphorylated Akt in KAT10 cells; settings: Akti IV 2 μM, 30 h
Procedure: Effects of suppression of the PI3K/Akt and MAP kinase pathways by specific inhibitors on thyroid cancer cells. […] NPA and KAT10 cells were treated with Akti IV at 0.5 and 2 μM, respectively, or with U0126 at 10 μM for 30 h. Cells were lysed for Western blotting assay. The activities of PI3K/Akt and MAP kinase pathways were reflected by the level of phosphorylated Akt and ERK detected with specific anti-phosphorylated Akt (p-Akt) and anti-phosphorylated ERK (p-ERK) antibodies. Immunoblotting with antibody against β-actin was used for quality control.
Cells were lysed in RIPA buffer (Santa Cruz, Calif.). Cellular proteins were resolved by electrophoresis on a SDS-polyacrylamide (10%) gel (SDS-PAGE), transferred onto PVDF membranes (Amersham Pharmacia Biotech, Piscataway, N.J.), and immunoblotted with specific primary antibodies. Anti-BRAF (Sc-166), anti-phospho-Akt-1/2/3 (Sc-7985-R), anti-phospho-ERK (Sc-7383), and anti-Actin (Sc-1616-R) were purchased from Santa Cruz (Santa Cruz, Calif.). Anti-Akt-1 (#2967) and anti-Akt-2 (#2964) were purchased from Cell Signaling Technologies, Inc. (Beverly, Mass.). Antigen-antibody complexes were visualized using HRP-conjugated anti-mouse (Sc-2005, Santa Cruz, Calif.) or anti-rabbit (Sc-2004, Santa Cruz, Calif.) IgG antibodies and ECL Western Blotting Analysis System (Amersham Pharmacia).

[6] = system: thyroid genes (Tg, TSHR, NIS, TTF-1, TTF2); test: Quantitative real-time PCR of thyroid iodide-metabolizing genes, KAT10 cells; assay type: cell-based, human; settings: U0126 10 μM, Akti IV 2 μM, 30 h
NIS protein [7] = test: Flow cytometry and immunofluorescence of NIS protein expression, KAT10 cells; assay type: cell-based, human; settings: U0126 10 μM, Akti IV 2 μM, control 8.8%
Procedure: FIG. 14A-14C. […] FIG. 14A) Flow cytometric measurement of NIS protein expression. […] NIS protein levels were measured by flow cytometry. The blue frames indicate the cells expressing NIS protein, including dead (right upper quadrant; positive for both 7-AAD and NIS) and living (right lower quadrant, positive only for NIS) cells. FIG. 14B) Immunofluorescent localization of NIS. After a 30-h combined treatment with both Akti IV and U0126 (as in FIG. 14A), cells were analyzed by immunofluorescent microscopy using anti-NIS and FITC-coupled secondary antibody and double immunofluorescence with the red color representing 7-AAD nuclear staining and the green color representing NIS expression and localization. […] FIG. 14C) In vitro radioiodide uptake. […] Cells were subsequently incubated with 1 μCi Na125I/0.5 ml/well on 12-well plates for 1 h. Cells were then washed and harvested for radioactivity measurement using a gamma-counter as described in the Experimental Procedures. Data are expressed as the mean±SD of values from three assays. **, P<0.01, compared with control or empty vector. […]

KAT10 cells [8] = test: Radioactive iodide uptake assay, KAT10 cells; assay type: cell-based, human; settings: KAT10 cells treated with inhibitors, 1 μCi Na125I, 1 h
Procedure: FIG. 14A-14C. […] FIG. 14A) Flow cytometric measurement of NIS protein expression. […] NIS protein levels were measured by flow cytometry. The blue frames indicate the cells expressing NIS protein, including dead (right upper quadrant; positive for both 7-AAD and NIS) and living (right lower quadrant, positive only for NIS) cells. FIG. 14B) Immunofluorescent localization of NIS. After a 30-h combined treatment with both Akti IV and U0126 (as in FIG. 14A), cells were analyzed by immunofluorescent microscopy using anti-NIS and FITC-coupled secondary antibody and double immunofluorescence with the red color representing 7-AAD nuclear staining and the green color representing NIS expression and localization. […] FIG. 14C) In vitro radioiodide uptake. […] Cells were subsequently incubated with 1 μCi Na125I/0.5 ml/well on 12-well plates for 1 h. Cells were then washed and harvested for radioactivity measurement using a gamma-counter as described in the Experimental Procedures. Data are expressed as the mean±SD of values from three assays. **, P<0.01, compared with control or empty vector.
Thyroid cancer cells (1×10^6 cells/well) treated under the indicated conditions were seeded in 12-well plates. […] Cells were collected and radioactivity was counted by a gamma-counter.

NPA cells [9] = test: MTT cell proliferation assay, NPA cells; settings: 4 μM U0126, 0.2 μM Akti IV, 5-day course
Procedure: FIG. 1B) Inhibition of cell proliferation by suppression of MAPK and PI3K/Akt pathways achieved with U0126 and Akti IV individually or in combination (U+A) as indicated. MTT assay was performed to evaluate cell proliferation over a 5-day course of treatment with U0126 and Akti IV.
(§4) FIG. 7B) Inhibition of thyroid cancer cell proliferation by suppression of PI3K/Akt and MAP kinase pathways achieved with Akti IV and U0126 individually or in combination (U+A) as indicated. MTT assay was performed to evaluate cell proliferation over a 5-day course of treatment with Akti IV and U0126.

KAT10 cells [10] = test: MTT cell proliferation assay, KAT10 cells; settings: 4 μM U0126, 1 μM Akti IV, 5-day course
Procedure: as §4

[11] = system: phosphorylation of ERK (p-ERK); settings: NPA cells, U0126 10 μM, 30 h
Text: Cells were lysed for Western blotting assay.
(§3) FIG. 7A-7C. […] Cells were lysed for Western blotting assay.
Cells were lysed in RIPA buffer.

[12] = system: phosphorylation of ERK (p-ERK); settings: KAT10 cells, U0126 10 μM, 30 h
Text: as §3

Row | Structure (SMILES) | radioiodide uptake (NPA cells [1]) | inhibition of phosphorylation of Akt (p-Akt) [2] | NIS expression (cells expressing NIS protein, flow cytometry) (NIS protein [3]) [%] | expression of iodide-handling genes (NIS, TSHR, Tg, TTF1) [4] | inhibition of phosphorylation of Akt (p-Akt) [5] | expression of thyroid genes (Tg, TSHR, NIS, TTF1) [6] | NIS expression (cells expressing NIS protein, flow cytometry) (NIS protein [7]) [%] | Na125I uptake (KAT10 cells [8]) | inhibition of cell proliferation (MTT) (NPA cells [9]) | inhibition of cell proliferation (MTT) (KAT10 cells [10]) | inhibition of phosphorylation of ERK (p-ERK) [11] | inhibition of phosphorylation of ERK (p-ERK) [12]
1 | CC[n+]1c(/C=C/N(C)c2ccccc2)n(-c2ccccc2)c2ccc(-c3nc4ccccc4s3)cc21.[I-] [Akti IV, Akt inhibitor IV] | significantly increased | strongly inhibited | 13.7 | restored; also recorded: induced or dramatically enhanced | strongly inhibited | restored | 29 | significantly increased | partially | partially | – | –
2 | N#CC(=C(/N)Sc1ccccc1N)/C(C#N)=C(\N)Sc1ccccc1N [U0126] | significantly increased | – | 6 | restored; also recorded: induced or dramatically enhanced | – | restored | 11.8 | significantly increased | partially | partially | strongly inhibited | strongly inhibited
